Measured values published in patent US6756377B2, “Compounds and their use” (Biovitrum AB, priority 2000, dated 2004).
Like-named read-outs stand apart in the source and are kept apart here.

Tests used:
[1] = target: T1, human 5-HT2c receptor protein (Homo sapiens, UniProt P28335); assay: 5-HT2c receptor affinity assay (displacement of 3H-labelled 5-HT, Scintillation Proximity Assay); settings: membranes of transfected HEK293 cells; 3H-5-HT displacement; non-specific binding 5 μM mianserin
T1 construct: expressed in transfected cells; host or cells: HEK293 (membranes)
T1 sequence (P28335 33-458): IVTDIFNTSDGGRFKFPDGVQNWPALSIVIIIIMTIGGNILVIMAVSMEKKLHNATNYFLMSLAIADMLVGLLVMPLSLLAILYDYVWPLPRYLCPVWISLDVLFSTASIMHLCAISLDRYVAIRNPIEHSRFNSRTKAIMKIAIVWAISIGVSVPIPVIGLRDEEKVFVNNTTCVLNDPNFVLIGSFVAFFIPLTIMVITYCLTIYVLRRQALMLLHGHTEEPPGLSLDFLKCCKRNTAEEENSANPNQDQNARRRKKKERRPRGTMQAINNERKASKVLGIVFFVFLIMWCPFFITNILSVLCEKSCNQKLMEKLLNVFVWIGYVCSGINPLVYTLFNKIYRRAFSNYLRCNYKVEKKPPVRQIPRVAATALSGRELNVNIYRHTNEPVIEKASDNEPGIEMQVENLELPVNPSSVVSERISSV
Description: The 5-HT2c receptor affinity of compounds in the Examples was determined in competition experiments, where the ability of each compound in serial dilution to displace ^3H-labelled 5-HT, bound to membranes prepared from a transfected HEK293 cell line stably expressing the human 5-HT2c receptor protein, was monitored by Scintillation Proximity Assay technology. Non-specific binding was defined using 5 μM mianserin. Typically, the 5HT2c receptor affinity values (Ki, nM) were in the range of 1 nM to 1500 nM, preferably 1 nM to 100 nM.

[2] = cited from earlier work
[3] = tested on: 5-HT2c receptor; settings: mice expressing the mutated inactive form of the 5-HT2c receptor; cited from earlier work
[4] = target: T2, 5-HT2c receptor (Mus musculus, UniProt P34968); settings: mice that express the normal 5-HT2c receptor; cited from earlier work
T2 construct: mice that express the normal 5-HT2c receptor; host or cells: mice (in vivo)
T2 sequence (P34968 33-459): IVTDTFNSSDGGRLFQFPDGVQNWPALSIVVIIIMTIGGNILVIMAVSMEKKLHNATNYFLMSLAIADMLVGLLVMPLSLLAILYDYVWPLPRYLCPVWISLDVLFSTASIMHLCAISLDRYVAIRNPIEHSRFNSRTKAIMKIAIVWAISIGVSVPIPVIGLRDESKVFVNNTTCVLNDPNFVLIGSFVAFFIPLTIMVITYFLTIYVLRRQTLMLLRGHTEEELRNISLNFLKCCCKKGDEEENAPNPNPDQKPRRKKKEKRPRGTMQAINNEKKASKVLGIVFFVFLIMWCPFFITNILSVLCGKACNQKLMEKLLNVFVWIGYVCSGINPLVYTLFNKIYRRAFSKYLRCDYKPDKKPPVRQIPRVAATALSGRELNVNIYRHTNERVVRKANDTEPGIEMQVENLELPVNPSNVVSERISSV

## CC(C)NCc1cccc(OCCOc2nccnc2N2CCNCC2)c1 [Example 5, 2-(1-Piperazinyl)-3-{2-[3-{(isopropylamino)methyl}phenoxy]ethoxy}pyrazine]
[1]
  Ki: 0.003 µM

## CNCCC(Oc1ccc(C(F)(F)F)cc1)c1ccccc1 (stereo not shown) [fluoxetine]
[2]; controlled clinical studies
  body weight: weight reduction

## c1cc(CN2CCOCC2)cc(OCCOc2nccnc2N2CCNCC2)c1 [Example 1, 2-(1-Piperazinyl)-3-{2-[3-(4-morpholinylmethyl)phenoxy]ethoxy}pyrazine]
[1]
  Ki: 0.018 µM

## Clc1cccc(N2CCNCC2)c1 [mCPP, m-chlorophenylpiperazine]
[2]; obese subjects, after 2 weeks of treatment
  body weight: slight but sustained reduction in body weight
[3]
  food intake: lacks activity
[4]
  food intake: reduces food intake

## CCN[C@@H](C)Cc1cccc(C(F)(F)F)c1 [dexfenflurarnine]
[2]; controlled clinical studies
  body weight: weight reduction
